What was measured:
[1] = test system: acute sickle-cell crises; conditions: stated by The University of Maryland; cited from earlier work
[2] = test system: erythroid precursor cells from pediatric sickle cell disease patients; test: HbS-to-HbF switching in two-phase culture, HPLC of hemoglobins and immuno-HbF fluorescence; format: cell-based, human; conditions: FIG. 23
[3] = test system: endogenous ferritin-H gene expression in NT-2 (NTERA-2) stem cells; test: Western blot for ferritin-H in NT-2 cells; format: cell-based, human; conditions: Western blot after 8 days in the presence of compound vs DMSO-control, FIG. 21
Description: Cell lines. Human NTERA-2 (NT-2) embryonal carcinoma stem cells (ATCC # CRL-1973) were cultured in DMEM medium with 10% FBS and antibiotics.
Western blots and quantification. Cell lysates (i.e., extracts of human NT-2 cells) were boiled for 3-5 minutes in SDS buffer, layered onto polyacrylamide gels and were run with SDS electrophoresis buffer at 90 volts for 30 minutes. Electrophoresed samples were then placed in 3% BSA buffer and transferred at 80 volts for 2 hours to blotting membranes. A blocking reaction was performed over night with blocking buffer from ECL advance kit (GE Healthcare Bio-Sciences, NJ), followed by incubation for 4 hours in BSA buffer with fluorescent secondary antibody (1:10000) and primary anti ferritin-H (anti-FtH) polyclonal antiserum (1:1000). Ferritin-H detection was achieved using the LI-COR apparatus to visualize the fuorescent bands and Odyssey software to quantify the stained bands of ferritin-H. Isolation and culture of human mononuclear cells and maturation of erythroid precursor cells are diagrammed in FIG. 22. Whole blood was obtained from pediatric sickle cell patients at the time of scheduled transfusion therapy under an approved IRB protocol. […]

[4] = test system: partially purified ferritin-protein from K562 nuclei; test: Competition gel-shift assay with labeled wt −164/−128 oligonucleotide; format: binding, human; conditions: for excess of unlabeled oligonucleotide needed for significant competition with labeled wt sequence: heated K562 nuclear extract protein, FIG. 4B/4C
Description: Preparation of nuclear extracts. Each nuclear extract preparation was made from two liters of K562 cells (1×10^6 cells/ml) using the procedure of Dignam, Lebovitz, and Roeder (Dignam, J. D., Lebovitz, R. M. & Roeder, R. G. (1983) Nucleic Acids Res 11, 1475-89). Protein content of the extracts ranged from 3 to 6 mg/ml. Extracts enriched 80-90% in ferritin-like protein(s) were prepared by treating the crude extracts with proteinase K and/or heat at 75° C. (Atkinson, B. G., Dean, R. L., Tomlinson, J. & Blaker, T. W. (1989) Biochem Cell Biol 67, 52-7).
Gel mobility shift assays. Gel retardation assays (i.e., gel shifts) were used to determine DNA binding of the extract proteins to the Rsa I (95 bp) fragment and synthetic oligonucleotides (Berg et al., (1989) Nucleic Acids Res 17, 8833-52; Fried & Crothers (1981) Nucleic Acids Res 9, 6505-25). Each reaction contained 0.5-2 ng of DNA, 1.0-5.0 ug of extract protein, 1.0-5.0 ug of poly dI:poly dC, 100 mM KCl, and binding buffer (Berg et al., (1989) Nucleic Acids Res 17, 8833-52). Unlabeled competitor oligonucleotides ranged from 15- to 2000-fold molar excess and were included in the reaction mixture with the probe before adding protein. Gels used for retardation assays were 4%, 5%, or 6% acrylamide and the running buffer was low ionic strength TAE (Berg et al., (1989) Nucleic Acids Res 17, 8833-52).
Definition of the binding site with competition gel shifts. To further localize the binding of ferritin, the 37 bp oligonucleotide was mutated in different places, replacing six nucleotides at a time with all A's, all C's, or all G's, with complementary nucleotide replacements in the opposing strand (FIG. 4A). A competition gel shift assay was done with the partially purified protein from heated K562 nuclear extract, in which each of the unlabeled mutant oligos as well as the native sequence was competed against the 32-P-labeled native sequence for binding. All mutants competed for binding as well as the native sequence except those mutated in the −153/−148 region, i.e., mutated in the sequence CAGTGC [SEQ ID NO: 6] (e.g., FIG. 4D). […]

[5] = test system: distal promoter of the human β-globin gene (−222/−128); test: Gel mobility shift assay with distal promoter restriction fragment; format: binding; conditions: gel retardation assay, FIG. 2a left side
Text: Proteins and antibodies. Ferritins from human liver (enriched in L chains) and from human heart (enriched in H chains), human transferrin (iron saturated) and apotransferrin, polyclonal (rabbit) antiserum to human spleen ferritin and nonimmune rabbit serum were obtained from Sigma Chemical Company.
Restriction fragments and oligonucleotides. The 5′ region of the human β-globin gene (from −610 to +20), previously cloned in pSV2CAT, was cut into three fragments by sequential digestions with Hind III and Rsa I. The three fragments, electroeluted from agarose (Maniatis, T., Fritsch, E. F. & Sambrook, J. (1989) Molecular Cloning: A Laboratory Manual (Cold Spring Harbor Laboratory, Cold Spring Harbor, N.Y.), were 416 bp (−638/−223), 147 bp (−127/+20, containing the proximal promoter region), and 95 bp (the Rsa fragment, −222/−128, containing mainly distal promoter sequences). The three fragments were phenol/chloroform treated, dephosphorylated, and end-labelled with 32-P as described (Maniatis, T., Fritsch, E. F. & Sambrook, J. (1989) Molecular Cloning: A Laboratory Manual (Cold Spring Harbor Laboratory, Cold Spring Harbor, N.Y.); Kurien, B. T., Scofield, R. H., & Broyles, R. H. (1997) Anal Biochem 245, 123-126). […]

Compound: NC(=O)NO [Hydroxyurea]
- patients on whom the agent has no effect [1]: 25%

Compound: CC1=CC(=O)CC(C)(C)C1(O)/C=C/C(C)=C\C(=O)O (centres unmarked) [abscissic acid]
- HbS-to-HbF hemoglobin switch ([2]; administered day 1 of phase II culture with rhEpo, HPLC, observed 23 days to 4 weeks after administration): total switch
- cellular distribution of HbF production ([2]; immuno-HbF fluorescence): pancellular
- ferritin-H expression in NT-2 cells [3]: activated ferritin-H expression

Compound: wt: double-stranded wildtype −164/−128 β-globin promoter oligonucleotide, SEQ ID NO: 1 (AACTCCTAAGCCAGTGCCAGAAGAGCCAAGGACAGGT; complementary strand not cited, chemistry not fully specified; listed as Homo sapiens)
- excess of unlabeled oligonucleotide needed for significant competition with labeled wt sequence [4]: 50 fold excess

Compound: transferrin: human transferrin, another iron-binding protein, Sigma
- binding to −222/−128 distal promoter fragment [5]: did not bind

Compound: mutant no. 4: double-stranded −164/−128 oligonucleotide mutated in the −153/−148 CAGTGC sequence, SEQ ID NO: 5 (AACTCCTAAGCAAAAAACAGAAGAGCCAAGGACAGGT; double-stranded competitor oligonucleotide, further chemistry not given here)
- concentration required for 50% inhibition of binding of labeled probe, relative to wt sequence ([4]; FIG. 4D): 20 fold
- excess of unlabeled oligonucleotide needed for significant competition with labeled wt sequence [4]: 1,000 fold excess
